In US5747495A, “Method for treating hypertension using pyrazolopyrimidine derivatives” (Maeda; Hiroshi, priority 1995, dated 1998):
pEC50, pKi: −log10 of the molar value. “And” between values parts separate entries of the source, which are not always exact repeats. Identical values can stand only once.

Key:
Rabbit Aortic Ring = experiment: Relaxation of phenylepherine-contracted rabbit aortic ring by acetylcholine in the presence of AHPP; design: species or system New Zealand White rabbit; details: for Amount of acethylcholine required to inhibit 50% relaxation of aorta ring: 0.11 without AHPP
Protocol: Synergistic Vascular Relaxation Effect to Acetylcholine of Rabbit Aortic Ring by AHPP Aortic ring with a diameter of 5 mm was prepared from chest aorta of New Zealand White female rabbits with a body weight of 2.5-3.0 kg. The rings were surgically prepared and hanged into the organ bath containing 20 ml of Krebs solution, which was kept at 37° C. and supplemented with 95% O2 and 5% CO2, for determination of the tension. Aortic ring relaxation by […] acetylcholine was measured in the prescence of 0, 100, and 300 μmole/L of AHPP, after aortic ring contraction was induced by 0.15 μmole/L phenylepherine.

[1] = molecular target: T1, cow milk xanthine oxidase (Bos taurus, UniProt P80457); experiment: Inhibition of uric acid production by xanthine oxidase in vitro; assay type: biochemical
T1 construct: in the presence of cow milk xanthine oxidase; from tissue; host or cells: cow milk
T1 sequence (P80457 whole entry): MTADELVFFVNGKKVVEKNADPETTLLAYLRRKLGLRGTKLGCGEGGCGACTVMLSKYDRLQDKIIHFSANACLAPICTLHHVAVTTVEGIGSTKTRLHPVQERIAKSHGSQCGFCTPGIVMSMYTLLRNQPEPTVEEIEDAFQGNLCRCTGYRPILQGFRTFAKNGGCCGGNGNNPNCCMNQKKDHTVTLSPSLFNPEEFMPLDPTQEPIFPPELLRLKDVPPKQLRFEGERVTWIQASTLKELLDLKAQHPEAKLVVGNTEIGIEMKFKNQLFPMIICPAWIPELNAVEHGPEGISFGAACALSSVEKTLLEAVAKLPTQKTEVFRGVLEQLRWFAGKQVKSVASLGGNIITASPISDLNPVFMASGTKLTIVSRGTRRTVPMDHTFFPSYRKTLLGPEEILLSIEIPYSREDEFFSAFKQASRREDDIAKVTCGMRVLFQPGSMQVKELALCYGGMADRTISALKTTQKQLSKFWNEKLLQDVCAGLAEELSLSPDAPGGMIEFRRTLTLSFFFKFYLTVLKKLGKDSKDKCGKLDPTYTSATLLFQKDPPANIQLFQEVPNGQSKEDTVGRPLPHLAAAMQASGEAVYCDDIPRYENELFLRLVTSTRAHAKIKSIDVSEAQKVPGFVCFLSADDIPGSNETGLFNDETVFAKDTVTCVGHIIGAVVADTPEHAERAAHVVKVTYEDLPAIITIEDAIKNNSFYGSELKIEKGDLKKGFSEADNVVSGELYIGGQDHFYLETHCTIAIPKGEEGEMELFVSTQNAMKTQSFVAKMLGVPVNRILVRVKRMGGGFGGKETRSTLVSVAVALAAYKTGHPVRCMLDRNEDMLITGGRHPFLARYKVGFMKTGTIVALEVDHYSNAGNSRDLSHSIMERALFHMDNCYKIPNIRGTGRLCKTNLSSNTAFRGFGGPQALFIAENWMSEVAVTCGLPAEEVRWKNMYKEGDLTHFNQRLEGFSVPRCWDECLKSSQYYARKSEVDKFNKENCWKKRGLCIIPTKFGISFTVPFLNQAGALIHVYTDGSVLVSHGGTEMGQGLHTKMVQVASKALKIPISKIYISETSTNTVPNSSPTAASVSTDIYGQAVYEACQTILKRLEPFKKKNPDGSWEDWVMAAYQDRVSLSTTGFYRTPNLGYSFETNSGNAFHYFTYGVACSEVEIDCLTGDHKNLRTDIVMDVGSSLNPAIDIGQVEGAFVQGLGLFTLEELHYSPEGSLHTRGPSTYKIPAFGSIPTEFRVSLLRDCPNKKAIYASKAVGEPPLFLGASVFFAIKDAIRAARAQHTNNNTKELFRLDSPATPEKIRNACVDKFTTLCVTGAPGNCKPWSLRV
Protocol: Inhibitory Effect of AHPP Against Uric Acid Production by Xanthine Oxidase In Vitro
Rate of uric acid production was determined by measuring the increase of an optical absorbance at 290 nm in 50 mM phosphate buffer solution (pH 7.5) containing 2.19-21.9 μmole/L of xanthine and 0-0.44 μmole/L AHPP in the presence of cow milk xanthine oxidase in the final concentration of 3.33 mU/ml. […] The inhibitory coefficient (Ki) of AHPP for xanthine oxidase was determined to be 0.2 μM, by an analysis of its reaction velocity kinetics.

[2] = molecular target: xanthine oxidase derived from cow milk (Bos taurus, UniProt P80457); experiment: Inhibition of superoxide production by xanthine oxidase in vitro (lucigenin chemiluminescence); assay type: biochemical; details: for Integral value of intensity of chemiluminescence/10 min: average of two measurements, without AHPP 5.2 × 10^6 count
Sequence of xanthine oxidase derived from cow milk (P80457 whole entry): as above
Protocol: Inhibitory Effect of AHPP against Superoxide Production by Xanthine Oxidase In Vitro
Production of superoxide radicals was determined by measuring a chemiluminescence observed in 100 mM phosphate buffer (pH 7.4) containing 10 μmole/L lucigenin and […] xanthine in the presence of 20 U/ml of xanthine oxidase derived from cow milk. Further, the inhibition of superoxide generation by the AHPP was evaluated by addition of 0-100 μmole/L of AHPP into the reaction mixture.

[3] = tested on: Spontaneously Hypertensive Rats; experiment: Mean arterial blood pressure of spontaneously hypertensive rats after intravenous injection; assay type: in vivo, rat; details: 50 mg/kg, average of 8 rats
Protocol: Effect of Intravenous Injection of AHPP on the Blood Pressure of Spontaneously Hypertensive Rats
Eighteen weeks old spontaneously hypertensive 8 male rats weighing 300-400 g were intravenously infused with 50 mg/kg of AHPP in a solution dissolved in 1 ml of 0.1 M NaOH for 5 minutes (8 rats), and mean arterial blood pressure was measured under anesthesia. Eight control rats were received only 0.1 M NaOH by intravenous infusion.
Dose of AHPP. 50 mg/kg in rats. 0.33 mmol/ml, 1.0 ml/5 min. See text for details. Average value of 8 measurements ±SD.

[4] = tested on: Spontaneously Hypertensive Rats; experiment: Systolic blood pressure of spontaneously hypertensive rats after oral administration; assay type: in vivo, rat; details: 100 mg/kg oral, 4 hours after treatment, male spontaneously hypertensive rats
Protocol: Effects of Oral Administration of AHpp on the Blood Pressure of Spontaneously Hypertensive Rats
Four male spontaneously hypertensive rats with a body weight of […] and 4 male rats with a body weight of 200-300 g were orally given with 100 mg/kg of AHPP and a systolic blood pressure in tail artery was examined 4 hours after the treatment. Systolic blood pressure of the treated group was reduced to 70% the value of before

xanthine oxidase = details: J. Biol. Chem., 226, 993-1000, 1957; cited from earlier work
xanthine dehydrogenase = details: Yokohama Med. Bull., 29, 53-58, 1978; cited from earlier work
tryptophan pyrolase = details: Life Sci., 8, 843-851, 1969; cited from earlier work

`CC(=O)OCC[N+](C)(C)C` [acetylcholine, reference compound] showed a pEC50 (Rabbit Aortic Ring; Oryctolagus cuniculus, 0 μmole/L AHPP, contraction by 0.15 μmole/L phenylepherine, average of four measurements, read-out: Amount of acethylcholine required to inhibit 50% relaxation of aorta ring) of 6.96.
With `Nc1nc(O)nc2[nH]ncc12` [AHPP, 4-amino-6-hydroxypyrazolo [3,4-d]pyrimidine] the “inhibition of uric acid production by xanthine oxidase” value ([1]; 0-0.44 μmole/L AHPP, pH 7.5) was “inhibited by AHPP in a dose-dependent manner”, the pKi ([1]; pH 7.5, 2.19-21.9 μmole/L xanthine, 0-0.44 μmole/L AHPP, 3.33 mU/ml enzyme, read-out: inhibitory coefficient (Ki) for xanthine oxidase) was 6.70 and the “type of inhibition of xanthine oxidase” value ([1]; reaction velocity kinetics) was “competitive inhibition”. For the same compound, the “inhibition of superoxide production by xanthine oxidase” value ([2]; 0-100 μmole/L AHPP, pH 7.4) was “inhibit superoxide production by xanthine oxidase in a dose-dependent manner”, the “Integral value of intensity of chemiluminescence/10 min” value ([2]; 1 μmole/L AHPP) was 4.4 × 10^6 count and the “Integral value of intensity of chemiluminescence/10 min” value ([2]; 10 μmole/L AHPP) was 1.6 × 10^6 count. For the same compound, the “dose of phenylepherine required for 50% relaxation of phenylepherine-induced aortic ring contraction” value (Rabbit Aortic Ring; 0, 100, and 300 μmole/L AHPP) was “reduced depending on the concentration of AHPP”, the “Amount of acethylcholine required to inhibit 50% relaxation of aorta ring” value (Rabbit Aortic Ring; 100 μmole/L AHPP, contraction by 0.15 μmole/L phenylepherine, average of four measurements) was 0.075 and the “Amount of acethylcholine required to inhibit 50% relaxation of aorta ring” value (Rabbit Aortic Ring; 300 μmole/L AHPP, contraction by 0.15 μmole/L phenylepherine, average of four measurements) was 0.055. For the same compound, the “Mean arterial blood pressure (100% = preinjection value)” value ([3]; 5 min after iv, control 105.5 ± 7.5) was 98.3 ± 2.7%, the “Mean arterial blood pressure (100% = preinjection value)” value ([3]; 10 min after iv, control 107.3 ± 6.9) was 92.2 ± 6.1% and the “Mean arterial blood pressure (100% = preinjection value)” value ([3]; 15 min after iv, control 106.1 ± 6.3) was 91.1 ± 5.6%. For the same compound, the “Mean arterial blood pressure (100% = preinjection value)” value ([3]; 20 min after iv, control 105.0 ± 6.6) was 86.9 ± 8.0%, the “Mean arterial blood pressure (100% = preinjection value)” value ([3]; 30 min after iv, control 103.3 ± 4.2) was 81.7 ± 5.0% and the “Mean arterial blood pressure (100% = preinjection value)” value ([3]; 40 min after iv, control 100.5 ± 3.1) was 77.7 ± 5.2%. The “Mean arterial blood pressure (100% = preinjection value)” value ([3]; 50 min after iv, control 98.9 ± 3.3) was 76.1 ± 7.2%, the “Mean arterial blood pressure (100% = preinjection value)” value ([3]; 60 min after iv, control 97.5 ± 4.1) was 73.5 ± 7.5% and the “Mean arterial blood pressure (100% = preinjection value)” value ([3]; 70 min after iv, control 96.7 ± 5.0) was 72.4 ± 6.6% and 72%. The “Systolic blood pressure in tail artery, % of value before” value [4] was 70%, the “inhibition of xanthine oxidase” value (xanthine oxidase) was “potent inhibitor” and the “inhibition of xanthine dehydrogenase” value (xanthine dehydrogenase) was “potent inhibitor”. For the same compound, the “inhibition of tryptophan pyrolase” value (tryptophan pyrolase) was “potent inhibitor”.
